Experimental data taken from US11419826B2, “Surface-modified mesoporous silica nanoparticle for blood-brain barrier penetration,tumor targeting and cancer metastasis treatment, methods of production and uses thereof” (NANO TARGETING & THERAPY BIOPHARMA INC., priority 2019, dated 2022).

Experiments:
U87-LUC glioma cells = assay: U87-LUC orthotopic glioma xenograft mouse model; format: in vivo; conditions: Dox 10 mg/kg i.v. every 4 days for 3 times
Procedure: U87-LUC glioma cells were cultured at 37° C. in a humidified 5% CO2 atmosphere in minimum essential median (MEM) supplemented with 10% fetal bovine serum and 1% penicillin/streptomycin (Invitrogen). Cells were harvested by trypsinization, washed once with phosphate-buffered saline (PBS), and re-suspended (1×10^5 cell/μL) in MEM for subsequent implantation into the striatum of mouse brains. Pathogen-free male NU/NU mice (5 to 7 weeks old) were purchased from BioLASCO (Taiwan). Mice were housed and maintained in a controlled environment and all procedures were performed in accordance with the experimental animal care guidelines of the Animal Committee of Chang Gung University. To implant U87-LUC tumor cells, animals were anesthetized with 2% isoflurane gas and immobilized on a stereotactic frame. […] The growth of the brain tumor was monitored by IVIS and MRI.
Dox is a well-known anti-cancer drug approved for treatment of multiple cancers. […] To evaluate the efficacy of Dox@MSN-PEG+TA anti-brain tumor in vivo, the U87-LUC brain cells were implanted orthotopically into nude mice to serve as the U87-LUC xenograft mouse model; U87-LUC cells can express luciferase for quantification of tumor cells in vivo. […] The distribution of MSN-PEG+TA and Dox@MSN-PEG+TA in brain tissue and tumor were assessed from the tumor sections from nanoparticle treated mice. […]

[1] = Pharmacokinetics and quantification of Dox accumulation in plasma and brain; conditions: single i.v. dose, Dox 7.5 mg/kg; after 15 minutes
Procedure: Healthy balb/c mice were single dose intravenously injected with Dox or Dox@NTT0_18 at 7.5 mg/kg. To determine the Dox concentration in plasma and brain, blood samples were taken at 15, 30, 60, 180, 360 and 1440 minutes after injection, and after the blood samples were taken, each animal was sacrificed and perfused with PBS to obtain the brain. Dox was extracted from the samples (plasma and brain respectively) for the determination of dox concentration with a spectrophotometer.
Mice received a single dose of Dox or Dox@NTT0_18 (MSN-PEG+TA-loaded Dox) through intravenous injection (all at Dox dose 7.5 mg/kg). To determine the Dox concentration in plasma and brain, blood samples were taken at 15, 30, 60, 180, 360 and 1440 minutes after injection and animals were sacrificed and perfused with PBS at each time point. Dox was extracted from plasma and brain and the Dox concentration was measured using a spectrophotometer. The concentration versus time curves of Dox in plasma with and without MSN-PEG+TA encapsulated was also established.

SMILES: COc1cccc2c1C(=O)c1c(O)c3c(c(O)c1C2=O)C[C@@](O)(C(=O)CO)C[C@@H]3O[C@H]1C[C@H](N)[C@H](O)[C@H](C)O1 [Dox, doxorubicin]
- toxicity / body weight of treated mice (U87-LUC glioma cells): causes death of the host
- tumor size (U87-LUC glioma cells; during the treatment period): shrunk during the treatment period
- Dox concentration in plasma [1]: lower than 0.2 μg/mL
